Assay results from paper PMC6521623, “DIRAS3-Derived Peptide Inhibits Autophagy in Ovarian Cancer Cells by Binding to Beclin1” (Cancers, 2019).
Blank lines part the entries; values can stand above or below the molecule they belong to. Ends that are not written are not given here.

Assays:
[1] = target: T1, full-length Beclin1 (Homo sapiens, UniProt Q14457); assay: SPR affinity of biotinylated D3S2 peptide for Beclin1; type: binding; conditions: SPR Biacore 3000, 25 °C, c-terminal biotinylated D3S2 on SA chip, Beclin1 10 to 270 nM, Langmuir 1:1 fit, unit inferred
T1 construct: His tag (pQTEV vector, TEV site) (cleaved yes); made in house; host or cells: Escherichia coli BL21 (DE3), by analogy with the DIRAS2/3 chimera
Description: A DIRAS2/3 chimera construct was generated by replacing the amino acid residues 92–108 of DIRAS3 with 62–78 amino acid residues of DIRAS2. The DIRAS2/3 chimera construct was cloned into pQTEV vector using ligation-independent cloning and transformed into BL21 (DE3) Escherichia coli cells. Cells carrying the DIRAS2/3 chimera constructs were grown at 37 °C until the OD at 600 nm (OD600) reached to 0.6 and protein expression was induced with 0.5 mM isopropyl β-D-1-thiogalactopyranoside. Cultures were grown for an additional 12 h at 18 °C and harvested by centrifugation. Cells were resuspended in lysis buffer containing 50 mM Tris (pH 7.5), 150 mM sodium chloride, 10 mM magnesium chloride, 10 mM Imidazole, 5% glycerol and 1 mM β-mercaptoethanol and lysed using a cell disrupter (Constant Systems, Northamptonshire, UK). The lysate was cleared by centrifugation at 35,000 × g for 2 h at 4 °C. Cleared lysate was passed through a 0.22-μm filter. […]
SPR experiments were performed using a Biacore 3000 optical biosensor (GE Healthcare/Biacore AB) at 25 °C. […] Reference and buffer corrected SPR response was collected and the data was analyzed using Biacore evaluation software. The kinetic parameters and KD value were determined by fitting the sensorgram to a Langmuir 1:1 binding model (BIAevaluation version 4.1.1, GE Healthcare/Biacore AB, Marlborough, MA, USA).

[2] = target: T2, Beclin1 recombinant protein (UniProt Q14457 1-450); assay: peptide or protein array; 15mer peptide array of DIRAS3 residues 1-229 on membrane, overlaid with recombinant Beclin1 at 1 µg/mL in 1% BSA/PBS, 2 h at room temperature; detected with primary and secondary antibody, HRP; conditions: both partners purified
T2 construct: Beclin1 (BECN1); called full-length Beclin1 in the SPR experiment; The construct is not described beyond 'produced in a similar fashion'; For the chimera the His tag was cleaved with TEV protease; whether this also holds for Beclin1 is surmised; also called BECN1; full-length Beclin1; source: recombinant
T2 sequence (Q14457 whole entry, the tested form may be a part): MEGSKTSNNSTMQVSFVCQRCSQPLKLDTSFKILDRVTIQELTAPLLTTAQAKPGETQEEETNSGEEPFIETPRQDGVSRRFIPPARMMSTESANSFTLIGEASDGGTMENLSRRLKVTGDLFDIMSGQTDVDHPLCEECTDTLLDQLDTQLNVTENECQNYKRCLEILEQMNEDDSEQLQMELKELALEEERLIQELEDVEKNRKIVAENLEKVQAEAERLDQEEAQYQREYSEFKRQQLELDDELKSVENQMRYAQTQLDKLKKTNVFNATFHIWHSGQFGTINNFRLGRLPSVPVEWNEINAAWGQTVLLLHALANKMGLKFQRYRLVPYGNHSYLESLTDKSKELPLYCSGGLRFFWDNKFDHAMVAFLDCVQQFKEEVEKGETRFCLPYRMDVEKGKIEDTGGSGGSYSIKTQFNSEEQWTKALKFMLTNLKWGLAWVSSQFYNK

T1 sequence (Q14457 whole entry): as the sequence (Q14457 whole entry, the tested form may be a part) above

- kon ([1]; read-out: association rate constant (ka)): 62200 M⁻¹ s⁻¹
- koff ([1]; read-out: dissociation rate constant (kd)): 0.000125 s⁻¹
Molecule: SKSGDGNRALQRHVIAR [D3S2]

- binding result [2]: binds
B1: DIRAS3 N-terminus peptides on the DIRAS3 peptide array (residues 15-33) (peptide, UniProt O95661 15-33, looked up)
peptide: KRLRLLPALLILRAFKPHR
notes: DIRAS3, residues 15-33 (N-terminus), a stretch covered by overlapping 15mer peptides of an array covering residues 1-229; The stretch is longer than one 15mer, so several overlapping array spots are meant; also called N-terminus of DIRAS3 (residues 15-33); source: synthetic peptide, SPOT synthesis on membrane (MultiPep RS robot)

- binding result [2]: binds
B2: DIRAS3 switch II region peptide on the DIRAS3 peptide array (residues 93-107) (peptide, UniProt O95661 93-107, looked up)
peptide: KSGDGNRALQRHVIA
notes: source: synthetic peptide, SPOT synthesis on membrane (MultiPep RS robot)
